Data as given in patent US10947242B2, “[1,2,4]triazolo[1,5and#8208;A]pyrimidine compounds as PDE2 inhibitors” (Janssen Pharmaceutica NV, priority 2016, dated 2021).
Values joined by “and” are separate entries in the source; they are usually repeats but may differ in a detail not shown here. Equal values may be shown once. Read-outs that look alike come from different tables or passages of the source.

Legend:
[1] = biological target: T1, Human recombinant PDE2A (hPDE2A) (Homo sapiens, UniProt O00408); experiment: In vitro assay PDE2A (SPA, 3H-cGMP hydrolysis); format: biochemical; conditions: for Emax: read-out: hPDE2A Emax
T1 construct: His tag (inferred from metal chelate purification); made in house; host or cells: Sf9 insect cells (baculovirus)

PDE2A = biological target: T2, PDE2A (Rattus norvegicus, UniProt Q01062); experiment: PDE2 occupancy by test compounds, ex-vivo autoradiography with [3H]B-17a; format: in vivo, Male Wistar rats; conditions: for receptor occupancy at 10 mg/kg: percentage receptor occupancy, ex-vivo autoradiography, striatum; for ED50: read-out: PDE Occupancy ED50
T2 construct: Twenty μm-thick striatal sections were cut; from tissue; host or cells: rat brain, striatal sections
T2 sequence (Q01062 1-928): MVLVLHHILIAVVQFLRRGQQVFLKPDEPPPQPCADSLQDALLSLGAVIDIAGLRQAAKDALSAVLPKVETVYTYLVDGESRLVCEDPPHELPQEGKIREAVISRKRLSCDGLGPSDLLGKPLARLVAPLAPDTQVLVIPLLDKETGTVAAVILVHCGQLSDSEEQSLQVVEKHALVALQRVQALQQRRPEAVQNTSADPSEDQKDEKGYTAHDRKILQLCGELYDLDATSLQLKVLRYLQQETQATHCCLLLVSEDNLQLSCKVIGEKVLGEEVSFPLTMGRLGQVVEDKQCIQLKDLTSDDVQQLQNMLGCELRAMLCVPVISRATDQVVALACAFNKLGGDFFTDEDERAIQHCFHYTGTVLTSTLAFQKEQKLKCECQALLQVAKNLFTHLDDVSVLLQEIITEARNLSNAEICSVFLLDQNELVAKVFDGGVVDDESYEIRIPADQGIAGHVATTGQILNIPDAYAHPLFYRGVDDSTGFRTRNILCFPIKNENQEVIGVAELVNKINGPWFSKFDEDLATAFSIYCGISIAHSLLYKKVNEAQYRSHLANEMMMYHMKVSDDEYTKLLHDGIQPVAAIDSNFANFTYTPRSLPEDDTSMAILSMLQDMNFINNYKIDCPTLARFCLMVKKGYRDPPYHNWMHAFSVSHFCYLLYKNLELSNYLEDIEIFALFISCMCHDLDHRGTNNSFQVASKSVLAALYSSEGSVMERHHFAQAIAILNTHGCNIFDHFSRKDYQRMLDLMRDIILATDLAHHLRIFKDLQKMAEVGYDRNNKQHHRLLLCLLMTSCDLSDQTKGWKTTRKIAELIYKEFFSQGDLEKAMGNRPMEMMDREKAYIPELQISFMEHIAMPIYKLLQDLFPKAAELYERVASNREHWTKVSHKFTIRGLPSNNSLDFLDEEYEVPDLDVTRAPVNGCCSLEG

[2] = biological target: T3, Human recombinant PDE10A (hPDE10A) (Homo sapiens, UniProt Q9Y233); experiment: In vitro assay PDE10A, human clone (SPA, 3H-cAMP hydrolysis); format: biochemical
T3 construct: His tag (inferred from metal chelate purification); made in house; host or cells: Sf9 insect cells (baculovirus)
Method in brief: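 Human recombinant PDE10A was expressed in Sf9 cells via baculovirus and incubated with compound in 50 mM Tris pH 7.8, 8.3 mM MgCl2, 1.7 mM EGTA. Substrate was 60 nM cAMP plus 0.008 μCi 3H-cAMP for 60 min at room temperature, read by SPA scintillation counting. Controls used 1% DMSO, and blanks omitted enzyme.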

[3] = biological target: T4, Human recombinant PDE3A (hPDE3A) (Homo sapiens, UniProt Q14432); experiment: In vitro assay PDE3A (SPA, 3H-cAMP hydrolysis); format: biochemical; conditions: for IC50: hPDE3B pIC50, read-out: pIC50 (converted); for Emax: read-out: hPDE3B Emax, read-out: Emax;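 on all read-outs here: the method names PDE3A and the table heading PDE3B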
T4 construct: purchased Scottish Biomedical; host or cells: Sf9 insect cells
Method in brief: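 Human PDE3A, cloned from brain, as partially purified Sf9 lysate. Substrate 0.4 μM cAMP plus [3H]-cAMP (2.4 μCi/ml final) in 50 mM Tris pH 7.8, 8.3 mM MgCl2, 1.7 mM EGTA, 60 min at room temperature, 1% DMSO final. Hydrolysis read by SPA scintillation counting against no-enzyme blanks and DMSO controls.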

[4] = hPDE2A pIC50, human recombinant PDE2A, 10 μM cGMP substrate
[5] = human clone (h), default, read-out: hPDE10A2 Emax
[6] = human clone (h), default, read-out: hPDE10A2 pIC50 (converted)
[7] = human recombinant PDE2A, 10 μM cGMP substrate, read-out: hPDE2A pIC50 (converted)
[8] = read-out: hPDE2A pIC50 (converted)
[9] = human clone by default (no (r) mark), read-out: hPDE10A2 or rPDE10A2 Emax
[10] = human clone by default (no (r) mark), read-out: hPDE10A2 or rPDE10A2 pIC50 (converted)
[11] = route PO (oral), drug dose producing 50% receptor occupancy

T4 sequence (Q14432 whole entry): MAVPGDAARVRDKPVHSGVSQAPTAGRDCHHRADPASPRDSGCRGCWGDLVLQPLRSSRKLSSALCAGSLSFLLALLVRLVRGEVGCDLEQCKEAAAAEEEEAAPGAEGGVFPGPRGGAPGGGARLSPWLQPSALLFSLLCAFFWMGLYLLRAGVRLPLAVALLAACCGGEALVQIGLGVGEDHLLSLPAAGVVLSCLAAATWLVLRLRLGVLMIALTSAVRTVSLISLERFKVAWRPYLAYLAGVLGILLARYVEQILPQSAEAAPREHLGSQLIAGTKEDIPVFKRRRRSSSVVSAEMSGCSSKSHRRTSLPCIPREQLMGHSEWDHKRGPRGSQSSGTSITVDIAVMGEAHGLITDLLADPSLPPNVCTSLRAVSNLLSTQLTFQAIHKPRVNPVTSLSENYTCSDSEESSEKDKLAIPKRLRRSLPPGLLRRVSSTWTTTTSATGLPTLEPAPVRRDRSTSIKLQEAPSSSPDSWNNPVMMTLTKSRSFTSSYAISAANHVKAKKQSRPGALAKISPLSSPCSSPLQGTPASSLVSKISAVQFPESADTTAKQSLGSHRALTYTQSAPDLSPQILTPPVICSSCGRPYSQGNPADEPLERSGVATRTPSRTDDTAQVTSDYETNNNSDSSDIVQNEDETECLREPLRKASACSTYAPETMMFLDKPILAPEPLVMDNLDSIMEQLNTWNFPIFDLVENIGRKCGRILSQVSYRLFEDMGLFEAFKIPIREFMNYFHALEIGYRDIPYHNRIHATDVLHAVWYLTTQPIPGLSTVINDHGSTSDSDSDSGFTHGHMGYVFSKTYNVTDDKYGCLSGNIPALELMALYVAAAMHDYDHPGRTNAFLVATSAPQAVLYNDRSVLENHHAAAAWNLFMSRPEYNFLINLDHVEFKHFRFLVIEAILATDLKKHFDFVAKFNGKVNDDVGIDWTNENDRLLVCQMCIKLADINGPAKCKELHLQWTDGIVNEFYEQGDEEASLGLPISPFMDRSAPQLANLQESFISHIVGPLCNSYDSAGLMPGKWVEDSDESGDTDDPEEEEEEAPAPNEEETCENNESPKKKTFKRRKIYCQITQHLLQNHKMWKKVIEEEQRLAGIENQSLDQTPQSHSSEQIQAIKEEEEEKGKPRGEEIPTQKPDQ
T3 sequence (Q9Y233 267-1055): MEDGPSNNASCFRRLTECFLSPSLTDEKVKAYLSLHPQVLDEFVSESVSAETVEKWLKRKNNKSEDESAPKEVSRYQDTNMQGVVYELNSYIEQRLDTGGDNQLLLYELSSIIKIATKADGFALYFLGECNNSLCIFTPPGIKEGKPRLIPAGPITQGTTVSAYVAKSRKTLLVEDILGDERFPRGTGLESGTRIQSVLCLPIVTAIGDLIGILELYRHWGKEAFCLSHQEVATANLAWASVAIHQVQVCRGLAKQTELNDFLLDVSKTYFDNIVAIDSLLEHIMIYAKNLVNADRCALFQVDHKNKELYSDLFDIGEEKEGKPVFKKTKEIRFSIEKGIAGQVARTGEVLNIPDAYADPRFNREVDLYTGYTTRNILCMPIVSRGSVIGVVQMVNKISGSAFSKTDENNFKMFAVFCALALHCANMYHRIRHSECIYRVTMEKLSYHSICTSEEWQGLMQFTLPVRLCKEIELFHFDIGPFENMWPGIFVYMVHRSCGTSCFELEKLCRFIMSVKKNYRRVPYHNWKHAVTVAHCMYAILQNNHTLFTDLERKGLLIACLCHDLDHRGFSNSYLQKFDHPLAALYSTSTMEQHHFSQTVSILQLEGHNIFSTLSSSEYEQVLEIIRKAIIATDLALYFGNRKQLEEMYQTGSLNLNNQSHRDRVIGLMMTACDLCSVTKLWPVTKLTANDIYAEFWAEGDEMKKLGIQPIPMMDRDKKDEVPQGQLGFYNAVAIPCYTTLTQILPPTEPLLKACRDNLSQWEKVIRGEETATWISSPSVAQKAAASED
T1 sequence (O00408 whole entry): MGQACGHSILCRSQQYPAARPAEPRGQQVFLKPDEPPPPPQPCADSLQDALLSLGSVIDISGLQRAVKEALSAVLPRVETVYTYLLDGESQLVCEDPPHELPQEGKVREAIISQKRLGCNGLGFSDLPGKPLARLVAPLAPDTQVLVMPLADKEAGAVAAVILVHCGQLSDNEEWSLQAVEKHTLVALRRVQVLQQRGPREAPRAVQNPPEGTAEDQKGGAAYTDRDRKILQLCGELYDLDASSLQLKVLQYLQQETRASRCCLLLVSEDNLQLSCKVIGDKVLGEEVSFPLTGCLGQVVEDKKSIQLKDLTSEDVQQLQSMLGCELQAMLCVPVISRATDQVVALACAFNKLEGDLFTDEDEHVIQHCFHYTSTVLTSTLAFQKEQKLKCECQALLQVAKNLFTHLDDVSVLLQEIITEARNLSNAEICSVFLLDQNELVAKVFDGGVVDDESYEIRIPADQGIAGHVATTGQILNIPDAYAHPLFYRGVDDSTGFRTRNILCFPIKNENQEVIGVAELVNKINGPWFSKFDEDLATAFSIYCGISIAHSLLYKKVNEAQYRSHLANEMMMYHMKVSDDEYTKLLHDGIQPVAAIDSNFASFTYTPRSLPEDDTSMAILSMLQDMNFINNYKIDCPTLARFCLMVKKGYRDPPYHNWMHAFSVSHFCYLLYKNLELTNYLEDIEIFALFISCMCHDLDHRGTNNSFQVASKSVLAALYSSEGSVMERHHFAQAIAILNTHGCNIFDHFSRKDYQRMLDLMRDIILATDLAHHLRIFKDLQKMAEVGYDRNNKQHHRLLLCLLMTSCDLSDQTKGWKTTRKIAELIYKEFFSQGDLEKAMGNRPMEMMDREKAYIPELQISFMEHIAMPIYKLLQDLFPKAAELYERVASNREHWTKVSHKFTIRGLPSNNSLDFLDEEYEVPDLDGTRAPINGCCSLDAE

Row | Compound | IC50 ([1]; hPDE2A pIC50) [nM] | IC50 [1, 4] [nM] | Emax [1] [%] | receptor occupancy at 10 mg/kg (PDE2A; po, route PO (oral)) [%] | Emax [2, 5] [%] | IC50 [2, 6] | IC50 [3] [nM] | Emax [3] [%] | melting point [°C] | IC50 [1, 7] [nM] | Emax ([1]; human recombinant PDE2A) [%] | IC50 [1, 8] [nM] | Emax [2, 9] [%] | IC50 [2, 10] [nM] | receptor occupancy at 10 mg/kg (PDE2A; route PO (oral)) [%] | ED50 (PDE2A; po) [mg/kg] | receptor occupancy at 10 mg/kg (PDE2A; sc, route SC (subcutaneous)) [%] | ED50 (PDE2A; [11]) [mg/kg]
1 | Cc1cc(C(=O)N2CC[C@@H](C)[C@H](c3cc(C(F)F)nc4ncnn34)C2)cc(F)c1F [Compound 189] | 5.13 | 5.13 | 100 | 9 | 96 | 186 nM | 2750 | 80 | 152.03 | – | – | – | – | – | – | – | – | –
2 | C[C@@H]1CCN(C(=O)c2ccc3cc[nH]c3c2)C[C@H]1c1cc(C(F)F)nc2ncnn12 [Compound 106] | – | – | 100 | 0 | 99 | 21.4 nM | 389 | 98 | 273.02 | 0.891 | 100 | 0.891 | – | – | – | – | – | –
3 | COc1cc(C(=O)N2CC[C@@H](C)[C@H](c3cc(C)nc4ncnn34)C2)c(F)cn1 [Compound 225] | – | – | 99 | -6 | – | – | 1780 | 83 | 178.64 | – | – | 11.5 | 98 | 93.3 | – | – | – | –
4 | O=C(c1cnc2c(Cl)cccc2c1)N1[C@H]2CC[C@H](c3cc(C(F)F)nc4ncnn34)[C@@H]1CC2 [Compound 310] | – | – | 100 | – | – | – | 3890 | 78 | 240.9 | – | – | 1.41 | 95 | 398 | 52 | 9.6 | – | –
5 | COc1cc(C(=O)N2CC[C@@H](C)[C@H](c3cc(C(F)F)nc4ncnn34)C2)cc(C(C)C)n1 [Compound 122] | – | – | 100 | 0 | 100 | 74.1 nM | 1820 | 86 | 160.2 | 1.86 | 100 | 1.86 | – | – | – | – | – | –
6 | Cc1nc2ccc(C(=O)N3CC[C@@H](C)[C@H](c4cc(C(F)F)nc5ncnn45)C3)cc2o1 [Compound 127] | – | – | 99 | 34 | 99 | 25.7 nM | 437 | 94 | 139.13 | 2.24 | 99 | 2.24 | – | – | – | – | 53 | –
7 | Cc1cc(C(=O)N2CC[C@@H](C)[C@H](c3cc(C(F)F)nc4ncnn34)C2)cc(C2CC2)n1 [Compound 93] | – | – | 101 | 85 | 99 | 36.3 nM and 39.8 nM | 2570 | 84 | 201.12 | 0.398 | 101 | 0.457 | – | – | – | – | – | 7.8
8 | Cc1cc(C(=O)N2CC[C@@H](C)[C@H](c3cc(C(F)F)nc4ncnn34)C2)cc(Cl)c1F [Compound 129] | 2.29 | 2.29 | 101 | 21 | 99 | 91.2 nM | 1950 | 85 | 140.78 | – | – | – | – | – | – | – | – | –
9 | C[C@@H]1CCN(C(=O)c2ccc(OC(F)F)c(F)c2)C[C@H]1c1cc(C(F)F)nc2ncnn12 [Compound 192] | – | – | 99 | -13 | 99 | 72.4 nM | 724 | 95 | 110.16 | 9.33 | 99 | 9.33 | – | – | – | – | – | –
10 | COc1nc(C)cc(C(=O)N2CC[C@@H](C)[C@H](c3cc(C(F)F)nc4ncnn34)C2)c1F [Compound 282] | – | – | 100 | 47 | – | – | 1700 | 88 | 193.33 | – | – | 2.88 | 98 | 275 | – | – | – | 11.8
